Data set [1] can be described thus: DRUGMATRIX: beta-Lactamase enzyme inhibition (substrate: Nitrocefin). On the set-up: species or system Bacillus cereus. Conditions: Not Active = under 50% inhibition at 10 µM.
In data set [2] the target is 5-hydroxytryptamine receptor 4 (Cavia porcellus, UniProt O70528). In kind it is cell membranes, Dunkin-Hartley, Striatum, Membrane. Also: in other assays of this panel Not Active means under 50% inhibition at 10 µM.
The target of data set [3] is 5-hydroxytryptamine receptor 6 (Homo sapiens, UniProt P50406). The class given is cell membranes, HeLa, Membrane. Conditions: hela. Also: in other assays of this panel Not Active means under 50% inhibition at 10 µM.
The next data set addresses T1, Thromboxane-A synthase (Homo sapiens, UniProt P24557).
T1 sequence (P24557 whole entry): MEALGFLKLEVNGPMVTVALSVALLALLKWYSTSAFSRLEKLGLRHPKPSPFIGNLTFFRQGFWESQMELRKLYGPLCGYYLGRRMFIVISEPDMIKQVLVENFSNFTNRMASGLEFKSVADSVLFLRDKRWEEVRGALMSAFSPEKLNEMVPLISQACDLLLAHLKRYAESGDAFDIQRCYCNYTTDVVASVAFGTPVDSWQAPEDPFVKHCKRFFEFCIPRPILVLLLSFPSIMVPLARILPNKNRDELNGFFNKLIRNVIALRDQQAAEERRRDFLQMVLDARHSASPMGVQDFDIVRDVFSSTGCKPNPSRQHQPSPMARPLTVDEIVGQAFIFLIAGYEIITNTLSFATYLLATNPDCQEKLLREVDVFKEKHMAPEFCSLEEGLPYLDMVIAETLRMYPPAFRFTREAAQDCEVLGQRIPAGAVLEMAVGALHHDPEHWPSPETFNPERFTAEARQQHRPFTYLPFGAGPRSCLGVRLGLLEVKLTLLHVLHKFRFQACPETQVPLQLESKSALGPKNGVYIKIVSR
In words: biochemical. In kind it is tissue-based, Platelet.

A further data set deals with Vasopressin V1a receptor (Homo sapiens, UniProt P37288). The class given is cell membranes, Membrane. To be noted: hek293.
Data set [4] can be described thus: DRUGMATRIX: Glutamate, AMPA radioligand binding (ligand: [3H] AMPA). Conditions: Not Active = under 50% inhibition at 10 µM. The class given is cell membranes, Rattus norvegicus, Wistar, Cerebral cortex, Membrane.
The target of the next data set is Melanocortin receptor 5 (Homo sapiens, UniProt P33032). The class given is cell membranes, Membrane. To be noted: hek293. Also: in other assays of this panel Not Active means under 50% inhibition at 10 µM.
In data set [5] the target is Matrix metalloproteinase-9 (Homo sapiens, UniProt P14780). In words: biochemical. The class given is cell-based.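 Also: inhibition of isolated MMP-9 enzyme activity toward a synthetic peptide substrate, from the DrugMatrix protease screening panel; in other assays of this panel Not Active means under 50% inhibition at 10 µM.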
In a further data set the target is Acetylcholinesterase (Homo sapiens, UniProt P22303). In words: DRUGMATRIX: Acetylcholinesterase enzyme inhibition (substrate: acetylthiocholine). The class given is cell-based, HEK293. Conditions: hek293; Not Active = under 50% inhibition at 10 µM.
Another data set addresses T2, Cytochrome P450 2A6 (Homo sapiens, UniProt P11509).
T2 sequence (P11509 whole entry): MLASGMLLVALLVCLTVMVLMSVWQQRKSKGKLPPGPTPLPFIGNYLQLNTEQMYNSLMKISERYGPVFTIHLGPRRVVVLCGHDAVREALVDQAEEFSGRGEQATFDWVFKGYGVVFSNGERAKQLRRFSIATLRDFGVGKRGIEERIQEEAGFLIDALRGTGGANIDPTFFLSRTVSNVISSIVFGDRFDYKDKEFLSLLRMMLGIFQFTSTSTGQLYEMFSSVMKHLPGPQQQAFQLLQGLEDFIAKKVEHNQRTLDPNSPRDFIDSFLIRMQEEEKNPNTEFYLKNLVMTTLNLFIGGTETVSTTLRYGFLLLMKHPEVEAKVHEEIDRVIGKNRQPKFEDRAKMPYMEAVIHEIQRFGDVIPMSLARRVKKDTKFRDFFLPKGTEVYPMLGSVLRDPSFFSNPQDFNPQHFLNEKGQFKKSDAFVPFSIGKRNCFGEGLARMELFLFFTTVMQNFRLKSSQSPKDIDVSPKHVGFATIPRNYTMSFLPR
To be noted: bti-tn-5b1-4.

Chain of Melanocortin receptor 5 (P33032 whole entry): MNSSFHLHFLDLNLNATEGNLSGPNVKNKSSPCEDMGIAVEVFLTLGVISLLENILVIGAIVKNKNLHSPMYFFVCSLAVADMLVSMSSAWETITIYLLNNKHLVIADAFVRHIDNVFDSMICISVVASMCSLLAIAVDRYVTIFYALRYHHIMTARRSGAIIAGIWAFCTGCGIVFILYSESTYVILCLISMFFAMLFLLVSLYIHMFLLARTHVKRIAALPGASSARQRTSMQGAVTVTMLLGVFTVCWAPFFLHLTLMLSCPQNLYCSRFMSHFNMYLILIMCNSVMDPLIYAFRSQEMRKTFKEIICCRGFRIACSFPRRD
Chain of 5-hydroxytryptamine receptor 4 (O70528 whole entry): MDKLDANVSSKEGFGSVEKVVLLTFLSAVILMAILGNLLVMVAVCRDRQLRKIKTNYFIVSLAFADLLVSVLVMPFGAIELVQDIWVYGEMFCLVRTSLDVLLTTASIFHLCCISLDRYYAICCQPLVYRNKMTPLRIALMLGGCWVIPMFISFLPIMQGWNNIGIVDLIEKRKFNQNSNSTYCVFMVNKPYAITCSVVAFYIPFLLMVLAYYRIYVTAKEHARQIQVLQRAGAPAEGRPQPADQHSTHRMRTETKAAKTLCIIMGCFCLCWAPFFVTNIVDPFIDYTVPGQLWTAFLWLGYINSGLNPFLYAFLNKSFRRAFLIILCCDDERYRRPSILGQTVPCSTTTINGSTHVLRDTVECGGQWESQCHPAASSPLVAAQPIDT
Chain of Vasopressin V1a receptor (P37288 whole entry): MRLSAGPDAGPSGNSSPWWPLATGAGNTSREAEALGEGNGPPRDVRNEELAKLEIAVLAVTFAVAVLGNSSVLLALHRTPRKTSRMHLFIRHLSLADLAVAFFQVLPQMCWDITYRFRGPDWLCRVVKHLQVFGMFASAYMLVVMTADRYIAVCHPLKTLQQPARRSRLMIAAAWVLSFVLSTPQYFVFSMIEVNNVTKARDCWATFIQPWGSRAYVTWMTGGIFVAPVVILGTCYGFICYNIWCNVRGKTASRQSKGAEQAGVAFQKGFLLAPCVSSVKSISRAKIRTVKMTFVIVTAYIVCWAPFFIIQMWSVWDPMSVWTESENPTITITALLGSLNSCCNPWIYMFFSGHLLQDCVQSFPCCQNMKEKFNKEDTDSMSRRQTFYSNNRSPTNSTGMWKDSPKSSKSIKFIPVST
Chain of 5-hydroxytryptamine receptor 6 (P50406 whole entry): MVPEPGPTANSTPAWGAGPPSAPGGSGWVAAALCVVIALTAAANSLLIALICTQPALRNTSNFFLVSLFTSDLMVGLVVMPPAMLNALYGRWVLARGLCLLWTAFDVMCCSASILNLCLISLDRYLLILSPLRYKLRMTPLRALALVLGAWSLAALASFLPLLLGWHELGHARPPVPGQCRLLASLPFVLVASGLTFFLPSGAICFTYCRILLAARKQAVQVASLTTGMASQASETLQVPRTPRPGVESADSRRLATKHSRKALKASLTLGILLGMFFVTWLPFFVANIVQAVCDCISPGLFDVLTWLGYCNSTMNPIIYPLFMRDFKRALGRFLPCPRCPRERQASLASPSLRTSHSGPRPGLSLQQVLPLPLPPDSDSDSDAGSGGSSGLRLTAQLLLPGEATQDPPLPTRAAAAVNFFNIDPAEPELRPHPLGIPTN
Chain of Acetylcholinesterase (P22303 whole entry): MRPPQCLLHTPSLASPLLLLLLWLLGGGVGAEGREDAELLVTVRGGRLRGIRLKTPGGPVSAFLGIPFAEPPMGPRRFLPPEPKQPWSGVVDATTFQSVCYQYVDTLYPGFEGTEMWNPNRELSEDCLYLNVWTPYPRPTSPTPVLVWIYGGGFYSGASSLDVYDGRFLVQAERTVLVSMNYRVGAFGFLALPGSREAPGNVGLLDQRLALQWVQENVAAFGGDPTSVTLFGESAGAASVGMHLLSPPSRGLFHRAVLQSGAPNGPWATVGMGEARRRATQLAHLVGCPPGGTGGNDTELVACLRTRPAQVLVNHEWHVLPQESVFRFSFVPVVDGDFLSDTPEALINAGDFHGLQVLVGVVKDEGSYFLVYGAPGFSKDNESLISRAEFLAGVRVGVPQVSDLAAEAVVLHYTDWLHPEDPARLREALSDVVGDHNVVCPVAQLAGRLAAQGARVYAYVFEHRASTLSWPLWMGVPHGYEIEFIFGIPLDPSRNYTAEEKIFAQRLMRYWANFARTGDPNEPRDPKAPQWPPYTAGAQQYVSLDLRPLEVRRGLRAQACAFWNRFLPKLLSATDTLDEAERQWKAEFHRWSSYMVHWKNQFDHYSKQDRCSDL
Chain of Matrix metalloproteinase-9 (P14780 whole entry): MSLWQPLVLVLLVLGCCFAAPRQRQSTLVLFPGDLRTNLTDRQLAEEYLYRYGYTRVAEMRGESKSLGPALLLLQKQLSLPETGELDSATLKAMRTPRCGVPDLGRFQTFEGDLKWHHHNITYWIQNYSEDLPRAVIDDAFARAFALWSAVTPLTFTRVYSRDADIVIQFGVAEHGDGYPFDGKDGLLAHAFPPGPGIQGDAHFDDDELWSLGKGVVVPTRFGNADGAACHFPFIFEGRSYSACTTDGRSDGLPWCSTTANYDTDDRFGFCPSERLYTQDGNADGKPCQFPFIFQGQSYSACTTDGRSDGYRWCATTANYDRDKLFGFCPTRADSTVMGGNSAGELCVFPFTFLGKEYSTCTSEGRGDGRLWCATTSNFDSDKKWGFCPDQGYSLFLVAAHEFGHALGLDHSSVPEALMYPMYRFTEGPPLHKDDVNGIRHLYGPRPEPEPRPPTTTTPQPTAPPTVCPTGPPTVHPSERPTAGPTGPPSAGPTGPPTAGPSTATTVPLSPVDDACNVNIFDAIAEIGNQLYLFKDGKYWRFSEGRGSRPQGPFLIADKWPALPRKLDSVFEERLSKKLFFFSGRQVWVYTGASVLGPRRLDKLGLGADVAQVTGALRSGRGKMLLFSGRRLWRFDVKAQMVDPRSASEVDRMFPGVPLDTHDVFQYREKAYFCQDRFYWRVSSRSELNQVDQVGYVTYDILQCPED

Turning to `Cc1onc(-c2ccccc2)c1-c1ccc(S(N)(=O)=O)cc1` [VALDECOXIB], the concentration for half-maximal inhibition (IC50) entry (in data set [1]; in data set [2]; in [3]; against Thromboxane-A synthase (platelet); against Vasopressin V1a receptor; in [4]) was “Not Active” throughout. For the same compound, the IC50 result (on Melanocortin receptor 5; in data set [5]; against Acetylcholinesterase; against Cytochrome P450 2A6) was “Not Active” each time. In addition, the Ki result (in data set [1]; in data set [4]; on Cytochrome P450 2A6) was “Not Active” throughout.
Regarding `CC[C@]1(O)C[C@@H]2CN(CCc3c([nH]c4ccccc34)[C@@](C(=O)OC)(c3cc4c(cc3OC)N(C)[C@H]3[C@@](O)(C(=O)OC)[C@H](OC(C)=O)[C@]5(CC)C=CCN6CC[C@]43[C@@H]65)C2)C1` [VINBLASTINE], the IC50 – broadly, the concentration that inhibits the measured activity by half – was “Not Active” in data set [1]; “Not Active” in [2]; “Not Active” in data set [3]; 1870 nM at Thromboxane-A synthase (read-out: IC50); “Not Active” on Vasopressin V1a receptor; “Not Active” in data set [4]. Also, the IC50 entry (against Melanocortin receptor 5; in data set [5]; on Acetylcholinesterase; on Cytochrome P450 2A6) was “Not Active” throughout. The Ki result (in data set [1]; in data set [4]; on Cytochrome P450 2A6) was “Not Active” each time.
On to `CC(=O)CC(c1ccccc1)c1c(O)c2ccccc2oc1=O` (stereo not given) [WARFARIN], for which the IC50 result (in [1]; in data set [2]; in [3]; on Thromboxane-A synthase (platelet); against Vasopressin V1a receptor; in data set [4]) was “Not Active” each time. The IC50 result (at Melanocortin receptor 5; in data set [5]; against Acetylcholinesterase; against Cytochrome P450 2A6) was “Not Active” each time. In addition, the Ki result (in data set [1]; in data set [4]; at Cytochrome P450 2A6) was “Not Active” each time.
Take `C[C@@H](N)[C@H]1CC[C@H](C(=O)Nc2ccncc2)CC1` [Y-27632]: the IC50 entry (in data set [1]; in data set [2]; in data set [3]; at Thromboxane-A synthase (platelet); on Vasopressin V1a receptor; in data set [4]) was “Not Active” throughout. Further, the half-maximal inhibitory concentration (IC50) result (at Melanocortin receptor 5; in data set [5]; on Acetylcholinesterase; at Cytochrome P450 2A6) was “Not Active” throughout. Also, the Ki entry (in [1]; in [4]; at Cytochrome P450 2A6) was “Not Active” throughout.
On to `[Cl-].[Cl-].[Zn+2]` [ZINC CHLORIDE], for which the IC50 entry (in [1]; in data set [2]; in data set [3]; against Thromboxane-A synthase (platelet); on Vasopressin V1a receptor; in [4]) was “Not Active” throughout. Moreover, the IC50 result (at Melanocortin receptor 5; in data set [5]; at Acetylcholinesterase; on Cytochrome P450 2A6) was “Not Active” in each case. Also, the Ki entry (in data set [1]; in [4]; at Cytochrome P450 2A6) was “Not Active” in each case.

The record behind these values is ChEMBL document CHEMBL1909046, “DrugMatrix in vitro pharmacology data”.
